In US7635779B2, “Oxy substituted flavones as antihyperglycemic and antidyslipidemic agents” (Council of Scientific & Industrial Research, priority 2004, dated 2009):

Legend:
Type in all cases: in vivo, mouse
[1] = tested on: db/db mice; assay: Antidyslipidemic activity in db/db mice; settings: for % Fall in lipid levels HDL: HDL-cholesterol; for % Fall in lipid levels HDL / % Fall in lipid levels Chol.: + marks a rise; for % Fall in lipid levels Chol.: cholesterol; for % Fall in lipid levels TG: triglycerides
Description: The db/db mouse is a well-characterized model of type II diabetes. The background for the db/db mouse is the C57BL/Ks strain. The major deficiency of the C57BL/KsBom-db mouse (db/db) is lack of a functional leptin receptor. This leads to defective leptin signaling and a complete lack of feedback from leptin. […] The db/db mouse develops NIDDM from around week 10. The disease is stable until week 20, where destruction of pancreatic β-cells can be recognized clinically as decreasing levels of plasma insulin and very severe hyperglycemia. The male mice are more diabetic than female and will normally die earlier. The advantage of using male mice for experimental purposes is that the fluctuations in plasma parameters are less than in the females where the estrogen cycles affects the clinical diabetes mellitus. The optimal age of db/db mice used for experiments will be from week 12 to 18 when they have developed NIDDM with diabetic dyslipidemia but still have functional β-cells in the pancreas. C57BL/KsBom-db mice 12-18 weeks, 40-50 g bred in the animal house of CDRI, Lucknow. 10 male mice were used in the experiments. The mice were housed in groups of 5 individuals in a room controlled for temperature (23+2° C.) and 12/12 hours light/dark cycle (lights on at 6.00 am). Body weight was measured daily from day 1 to day 10. All animals had free access to fresh water and to normal chow except on the days of the postprandial protocol day 6 and during the overnight fast before the OGTT on day 10. Blood glucose was checked every morning up till day 5. On day 6 postprandial protocol was employed, in this method blood glucose was checked at −0.30 min and 0 h. Test compounds were given to the treatment group whereas control group received only gum acacia (1.0%); the blood glucose was again checked at 1, 2, 3, 4 and 6 h post test compound treatment. Finally on day 10 an oral glucose tolerance test (OGTT) was performed after an overnight fasting. Blood glucose was measured at −0.30 min and test drugs were fed, blood glucose was again measured at 0.0 min post treatment, at this juncture glucose solution was given at a dose of 3 gm/kg to all the groups including control group; the profile of blood glucose was checked at 30 min, 60 min, 90 min and 120 min post glucose administration. Quantitative glucose tolerance of each animal was calculated by Area Under Curve (AUC) method (Prism Software). Comparing the AUC of experimental and control groups determined the percentage antihyperglycemic activity. Statistical comparison was made by Dunnett's test.
Cholesterol and triglycerides were estimated using the same procedures as given above.
HDL-Cholesterol was estimated using the kit provided by the Roche Diagnostics. Cholestest N HDL is a liquid reagent that directly measures the HDL-cholesterol concentration in serum by a new method that is based on the selective solubilising effect of proprietary detergent to the different lipoproteins. In the assay system, only HDL is solubilised by a special detergent; other lipoproteins are not disrupted. After HDL is selectively disrupted, HDL cholesterol is measured enzymatically (Gordon, T.; Casstelli, W. P.; Hjortland, M. C.; Kannel, W. B.; Dawber, T. R. High density lipoproteins as a protective factor against coronary heart disease, Am. J. Med. 1977, 62, 707-714.).

[2] = tested on: Swiss mice; assay: Gross behaviour: autonomic responses; settings: 100 mg/kg p.o.
Description: 34 and 49 (100 mg/kg, p.o.) was administered in forenoon. […] Piloerection: Erection of body hairs (+: present or −: absent). • ii). Salivation: Secretion of saliva is observed as dripping of saliva from mouth, which is scored as 1=mild, 2=moderate and 3=severe as compared to control (0=no dripping). • iii). Lachrymation: Secretion and discharge of tears observed as shedding of tears around the lower eyelid, which is scored as 1=mild, 2=moderate and 3=severe as compared to control (0=no shedding). • iv). Palpebral closure: Ptosis (drooping of upper eyelids) present or absent • v). Exopthalmos: Protrusion (bulging) of eye ball; present or absent • vi). Defaecation: scored as 1=mild, 2=moderate and 3=severe as compared to control • vii). Urination: scored as 1=mild, 2=moderate and 3=severe as compared to control Results

[3] = tested on: Swiss mice; assay: Maximal electroshock seizures (MES); settings: 100 mg/kg p.o.; for Numbers of mice showed seizures/numbers of mice tested: 48 mAmp for 0.2 sec
Description: Control and treated mice (−60 min) were subjected to electric shock (48 mAmp for 0.2 sec) through pinna electrode.

[4] = tested on: Swiss mice; assay: Gross behaviour: sensory responses (reflexes, hot plate nociceptive response); settings: 100 mg/kg p.o.; for Nociceptive reaction time MEAN ± SE: hot plate 55° C.
Description: • i). Reflexes: Pinna, corneal and righting reflexes were tested [Normal (control), sluggish or absent] • ii). Nociceptive Response: Reaction time to nociceptive response was observed by hot plate analgesia meter (Columbus Instruments,USA). The cut-off period for thermal nociception (55° C.) to mice was 15 sec. Results • i). Reflexes: Corneal, pinna and righting reflexes were intact in 34 and 49 treated mice. • ii).

[5] = tested on: Swiss mice; assay: Neuromuscular coordination (muscle tone, rota rod test); set-up: key to Muscle tone score (hind limb rigidity): 0=Flaccid; 1=Normal; 2=Rigid; settings: for Effect on neuromuscular coordination as compared to control / Rota rod test-numbers of falls / Rota rod test-stay period at 1 h (MEAN ± SE): 100 mg/kg p.o.; for Rota rod test-stay period at 1 h (MEAN ± SE): test duration 2 min; for Muscle tone score (hind limb rigidity): resistance to passive flexion of hind-paw
Description: By resistance to passive flexion of each hind-paw
Score: 0=Flaccid, 1=Normal, 2=Rigid, • ii). Rota Rod Test
The period of stay on rotating rod (speed: 5 rotations/min; total duration of test 2 min) for each control and treated mice (−60 min) was recorded by Rotamex 4 (Columbus Instr., USA). The mice were trained to stay for period of 2 min on rotating rod and only trained mice were included in the study.

[6] = tested on: Swiss mice; assay: Barbiturate induced hypnosis (sleeping time); settings: for Change in barbiturate induced hypnosis: 100 mg/kg p.o.; for Sleep-duration (MEAN ± SE): 100 mg/kg p.o. 30 min prior to Pentobarbitone 45 mg/kg i.p.
Description: Sleeping time is calculated by the duration between loss and regain of righting reflex following administration of Pentobarbitone (45 mg/kg, i.p.). 34 and 49 in the dose 100 mg/kg, p.o. was administered 30 min prior to Pentobarbitone.

| SMILES | % Fall in lipid levels HDL [1] | % Fall in lipid levels Chol. [1] | % Fall in lipid levels TG [1] [%] | Effect on autonomic responses [2] | Anti-convulsant activity [3] | Numbers of mice showed seizures/numbers of mice tested [3] | Corneal, pinna and righting reflexes [4] | Effect on nociceptive reaction time as compared to control [4] | Sensory responses [4] | Nociceptive reaction time MEAN ± SE ([4]; 30 min) [s] | Nociceptive reaction time MEAN ± SE ([4]; 60 min) [s] | Nociceptive reaction time MEAN ± SE ([4]; 90 min) [s] | Nociceptive reaction time MEAN ± SE ([4]; 120 min) [s] | Nociceptive reaction time MEAN ± SE ([4]; Pre-tt (0)) [s] | Effect on neuromuscular coordination as compared to control [5] | Rota rod test-numbers of falls ([5]; 30 min) | Rota rod test-numbers of falls ([5]; 60 min) | Rota rod test-stay period at 1 h (MEAN ± SE) [5] [s] | Rota rod test-numbers of falls ([5]; 90 min) | Rota rod test-numbers of falls ([5]; 180 min) | also measured |
| --- | --- | --- | --- | --- | --- | --- | --- | --- | --- | --- | --- | --- | --- | --- | --- | --- | --- | --- | --- | --- | --- |
| CC(C)NCC(O)COc1ccc2c(=O)cc(-c3cc(O)cc(O)c3)oc2c1 (stereo not drawn) [Compound 49, 3′,5′-Dihydroxy-7-(2-hydroxy-3-iso-propylamino-propoxy)-flavone] | +12.7% | 17.2% | 24.1 | did not show any significant effect | did not show any significant anti-convulsant activity | 5/5 | intact | no significant effect | not affected | 4.66 ± 0.6 | 4.10 ± 0.2 | 3.66 ± 0.3 | 3.45 ± 0.1 | 4.61 ± 0.2 | did not show any significant effect | 0 | 1/8 | 112.25 ± 7.75 | 0 | 0 | Rota rod test-numbers of falls ([5]; Pre-tt (0)): 0; Muscle tone score (hind limb rigidity) [5]: 1; Change in barbiturate induced hypnosis [6]: did not show any significant change; Sleep-duration (MEAN ± SE) [6]: 103.4 ± 15.27 min |
| COc1cc(-c2cc(=O)c3ccc(OCCCOc4ccc(C=C5SC(=O)NC5=O)cc4)cc3o2)cc(OC)c1OC [Compound 65, 7-{3-[4-(thiazolidin-2,4-dione-5-ylidinemethyl)-phenoxy]-propoxy}-3′,4′,5′-trimethoxy-flavone] | 35.2% | 1.06% | 19.1 |  |  |  |  |  |  |  |  |  |  |  |  |  |  |  |  |  |  |
| CC(C)(C)NCC(O)COc1ccc2c(=O)cc(-c3cc(OCc4ccccc4)cc(OCc4ccccc4)c3)oc2c1 (stereo not drawn) [Compound 34, 7-(3-tert-Butylamino-2-hydroxy-propoxy)-3′,5′-dibenzyloxy-flavone] | +19.3% | +26.9% | 33.5 | did not show any significant effect | did not show any significant anti-convulsant activity | 5/5 | intact | no significant effect | not affected | 4.84 ± 0.3 | 4.30 ± 0.2 | 3.52 ± 0.1 | 3.08 ± 0.2 | 3.52 ± 0.2 | did not show any significant effect | 0 | 1/8 | 111.87 ± 8.82 | 0 | 0 | Rota rod test-numbers of falls ([5]; Pre-tt (0)): 0; Muscle tone score (hind limb rigidity) [5]: 1; Change in barbiturate induced hypnosis [6]: did not show any significant change; Sleep-duration (MEAN ± SE) [6]: 122.5 ± 16.7 min |
